“Also recorded” adds a separate entry of the source.
Experiments:
[1] = system: human intestinal smooth muscle cells (HISMCs); assay: HISMC/collagen matrix cell contraction assay; format: cell-based
Method: This assay was used to study the ability of […] to reorganize and contract in a collagen matrix. All procedures were done accordingly to protocols described by Dr. Alexander (5-HT3 dependent smooth muscle contraction assay, revised Aug. 30, 2012). The assay consisted in the preparation of collagen solution and in the polymerization and release of […]/collagen matrices. For 12 mL of collagen/[…], 15.0 mg of rat tail collagen was dissolved in 3.2 mL of cold 0.012M HCL. The solution was placed for 30 min in a rocker machine for gently agitation to avoid introducing bubbles. Then, 0.8 mL of cold PBS was added to the tube, mixed well, and kept on ice. The pH of the collagen solution was quickly titrated with 0.5 M NaOH to 7.45, and monitored by pH strips. The final collagen concentration was 1.25 mg/mL. The neutralized cold collagen solution was mixed with 12 mL of cold SMCM/1.5% dialyzed FBS containing […] at desire cell density (1×10^5 cells/mL). 0.5 mL of collagen/[…] mixture was added per well in 24-well plates and was incubated for 1 h at 37° C., 5% CO2. After collagen polymerization, 0.5 mL of culture medium with or without two-time concentration of drug treatments was added atop each collagen gel lattice. The polymerized collagen matrix containing […] was released from the edges of the well with a sterilized heat-blunted Pasteur pipette tip to allow them to float in culture medium, and contraction occurred with or without agonist addition in the absence of external mechanical load. The collagen gel size change (contraction index) was measured by morphometric analysis at various times (0, 24, 48, and 72 h). The culture plates were analyzed in triplicate and monitored at 24 h intervals. At the end of each time point, the plates were scanned via an Epson flatbed scanner.

[2] = system: college students with self-rated high susceptibility to motion sickness; conditions: 940 mg ginger root or 100 mg Dramamine 25-30 minutes prior to test; P < .001; cited from earlier work
[3] = system: women after laparascopic gynaecological surgery; conditions: ginger, 1.25 mg droperidol, vs placebo; cited from earlier work
[4] = system: Women undergoing gynecological surgery; conditions: 1.0 g ginger or 10 mg metochlopramide orally prior to surgery; P < .05; cited from earlier work
[5] = system: women after laparascopic gynaecological surgery; conditions: post-operative; given one hour prior to anaesthesia; placebo 41%; cited from earlier work

With Cl.NCCc1c[nH]c2ccc(O)cc12 [5-HT, 5-Hydroxytryptamine hydrochloride] the “contraction of HISMC gels induced by agonist” value ([1]; 5-HT at 10^−7M, 10^−8M and 10^−9M) was “induced dose and time dependent contraction”.
For C[C@@H](O[C@H]1OCCN(Cc2n[nH]c(=O)[nH]2)[C@H]1c1ccc(F)cc1)c1cc(C(F)(F)F)cc(C(F)(F)F)c1 [Aprepitant], the “effect on HISMC/collagen gel contraction” value ([1]; different concentrations, with or without 5-HT3) was “attenuated collagen gel contraction only at high concentrations, 10^−4 M and not significantly”.
In the case of Cc1nccn1CC1CCc2c(c3ccccc3n2C)C1=O (centres unmarked) [Ondansetron], the “effect on 5-HT induced HISMC/collagen matrix contraction” value ([1]; with 5-HT (10^−7M), different concentrations, 0-72 h) is reported as “reduced; also recorded: inhibited HISMCs contractions in a concentration- and time-dependent manner” and the “effect on HISMC/collagen matrix contraction without 5-HT” value ([1]; without 5-HT, different concentrations, 0-72 h) is reported as “inhibited HISMCs contractions in a concentration- and time-dependent manner”.
For CN(C)CCOC(c1ccccc1)c1ccccc1 [diphenhydramine], the “reducing vection induced motion sickness versus placebo (time in induced motion)” value [2] is listed as “more effective than dried chickweed herb placebo”.
For O=C(CCCN1CC=C(n2c(=O)[nH]c3ccccc32)CC1)c1ccc(F)cc1 [droperidol], the “decrease in nausea or vomiting post-surgery” value [3] is given as “no differences”.
For CCN(CC)CCNC(=O)c1cc(Cl)c(N)cc1OC [metochlopramide], the “effectiveness versus placebo for post-operative nausea and vomiting control” value [4] is listed as “significantly more effective than placebo” and the patients nauseated [5] is listed as “placebo, 27%”.

— patent US20240003872A1, “METHODS FOR ASSAYING AND MEASURING THE EFFICACY OF ANTI-NAUSEA COMPOUNDS” (priority 2020, published 2024)
